Tested on: C57BL/6 mice, Adenocarcinoma 755 sc, tumor weight T/C
Test: NCI In Vivo Anticancer Drug Screen. Data for tumor model Adenocarcinoma 755 (subcutaneous) in C57BL/6 mice
Conditions: endpoint: mean tumor weight, higher = larger tumour
Method: The antitumor activity of compounds was measured in mice bearing transplantable tumors. Survival or tumor size were measured and the results are expressed as the measurement made in the treated group (T) divided by the measurement made in the vehicle treated control group (C). The tumor model used in this assay is Adenocarcinoma 755 (subcutaneous) in C57BL/6 mice

[1] = dose: 10.0 mg/kg/injection, schedule: Q01DX011 (ip), vehicle: saline
[2] = dose: 20.0 mg/kg/injection, schedule: Q01DX011 (ip), vehicle: saline
[3] = dose: 150.0 mg/kg/injection, schedule: Q01DX011 (ip), vehicle: saline
[4] = dose: 300.0 mg/kg/injection, schedule: Q01DX011 (ip), vehicle: saline
[5] = dose: 2.0 mg/kg/injection, schedule: Q01DX011 (ip), vehicle: saline
[6] = dose: 50.0 mg/kg/injection, schedule: Q01DX011 (ip), vehicle: saline
[7] = dose: 40.0 mg/kg/injection, schedule: Q01DX011 (ip), vehicle: saline

In the case of `OCC1OC(n2cnc3c(=S)nc[nH]c32)C(O)C1O` (stereo unspecified), the T/C (dose: 0.5 mg/kg/injection, schedule: Q01DX011 (ip), vehicle: carboxymethylcellulose (CMC)) is reported as 29 % of control, the T/C (dose: 1.25 mg/kg/injection, schedule: Q01DX011 (ip), vehicle: carboxymethylcellulose (CMC)) is reported as 13 % of control and the T/C (dose: 2.5 mg/kg/injection, schedule: Q01DX011 (ip), vehicle: carboxymethylcellulose (CMC)) is reported as 3 % of control. For the same molecule, the T/C (dose: 34.0 mg/kg/injection, schedule: Q01DX011 (ip), vehicle: saline) was 2 % of control, the T/C (dose: 320.0 mg/kg/injection, schedule: Q01DX001 (oral), vehicle: alkali diluted with saline) was 10 % of control and the T/C (dose: 320.0 mg/kg/injection, schedule: Q03DX004 (oral), vehicle: alkali diluted with saline) was 2 % of control. For the same molecule, the T/C (dose: 320.0 mg/kg/injection, schedule: Q07DX002 (oral), vehicle: alkali diluted with saline) was 5 % of control, the T/C (dose: 480.0 mg/kg/injection, schedule: Q01DX001 (oral), vehicle: alkali diluted with saline) was 12 % of control and the T/C (dose: 480.0 mg/kg/injection, schedule: Q03DX004 (oral), vehicle: alkali diluted with saline) was 6 % of control. For the same molecule, the T/C (dose: 480.0 mg/kg/injection, schedule: Q07DX002 (oral), vehicle: alkali diluted with saline) was 5 % of control, the T/C (dose: 640.0 mg/kg/injection, schedule: Q01DX001 (oral), vehicle: alkali diluted with saline) was 68 % of control and the T/C (dose: 640.0 mg/kg/injection, schedule: Q03DX004 (oral), vehicle: alkali diluted with saline) was 1 % of control. For the same molecule, the T/C (dose: 640.0 mg/kg/injection, schedule: Q07DX002 (oral), vehicle: alkali diluted with saline) was 32 % of control.

In the case of `CCCNc1ncnc2c1cnn2C`, the T/C [1] is reported as 46 % of control, the T/C (dose: 15.0 mg/kg/injection, schedule: Q01DX011 (ip), vehicle: saline) is reported as 32 % of control and the T/C [2] is reported as 13 % of control.

For `CCOc1ccccc1C(=O)Nc1ccc(Br)cc1`, the T/C (dose: 75.0 mg/kg/injection, schedule: Q01DX011 (ip), vehicle: saline) was 94 % of control, the T/C [3] was 98 % of control and the T/C [4] was 75 % of control. The T/C (dose: 600.0 mg/kg/injection, schedule: Q01DX011 (ip), vehicle: saline) was 51 % of control.

For `CN(Cc1cnc2nc(N)nc(N)c2n1)c1ccc(C(=O)N[C@@H](CCC(=O)O)C(=O)O)cc1`, the T/C (dose: 0.75 mg/kg/injection, schedule: Q01DX011 (ip), vehicle: saline) was 74 % of control, the T/C (dose: 1.0 mg/kg/injection, schedule: Q01DX011 (ip), vehicle: saline) was 105 % of control and the T/C (dose: 1.5 mg/kg/injection, schedule: Q01DX011 (ip), vehicle: saline) was 45 % of control. The T/C [5] was 87 % of control.

`Nc1nc(=S)c2ncn(C3OC(COC(=O)c4ccccc4)C(OC(=O)c4ccccc4)C3OC(=O)c3ccccc3)c2[nH]1` (stereo unspecified) was tested, and the T/C (dose: 3.1 mg/kg/injection, schedule: Q01DX011 (ip), vehicle: methylcellulose (MC)) was 90 % of control, the T/C (dose: 6.25 mg/kg/injection, schedule: Q01DX011 (ip), vehicle: methylcellulose (MC)) was 62 % of control and the T/C (dose: 12.5 mg/kg/injection, schedule: Q01DX011 (ip), vehicle: methylcellulose (MC)) was 77 % of control. For the same molecule, the T/C (dose: 25.0 mg/kg/injection, schedule: Q01DX011 (ip), vehicle: methylcellulose (MC)) was 16 % of control.

With `c1ccc2nc(-c3cc4ccccc4s3)ccc2c1` the T/C [4] was 11 % of control.

`S=c1nc[nH]c2nc[nH]c12.[Cd]` was tested, and the T/C (dose: 0.1 mg/kg/injection, schedule: Q01DX011 (ip), vehicle: saline) was 60 % of control, the T/C (dose: 0.2 mg/kg/injection, schedule: Q01DX011 (ip), vehicle: saline) was 76 % of control and the T/C (dose: 0.4 mg/kg/injection, schedule: Q01DX011 (ip), vehicle: saline) was 60 % of control. For the same molecule, the T/C (dose: 0.8 mg/kg/injection, schedule: Q01DX011 (ip), vehicle: saline) was 49 % of control.

`Clc1ccc(N2CCN(CCCN3CCN(c4cccc(Cl)c4)CC3)CC2)cc1` was tested, and the T/C (dose: 7.5 mg/kg/injection, schedule: Q01DX011 (ip), vehicle: carboxymethylcellulose (CMC)) was 43 % of control, the T/C (dose: 15.0 mg/kg/injection, schedule: Q01DX011 (ip), vehicle: carboxymethylcellulose (CMC)) was 38 % of control and the T/C (dose: 30.0 mg/kg/injection, schedule: Q01DX011 (ip), vehicle: carboxymethylcellulose (CMC)) was 54 % of control.

For `O=P1(N(CCF)CCCl)NCCCO1` (stereo unspecified), the T/C (dose: 6.25 mg/kg/injection, schedule: Q01DX011 (ip), vehicle: saline) was 76 % of control, the T/C (dose: 12.5 mg/kg/injection, schedule: Q01DX011 (ip), vehicle: saline) was 94 % of control and the T/C (dose: 25.0 mg/kg/injection, schedule: Q01DX011 (ip), vehicle: saline) was 66 % of control. The T/C [6] was 88 % of control.

For `O=c1[nH]cc(S)c(=O)[nH]1`, the T/C (dose: 100.0 mg/kg/injection, schedule: Q02DX006 (ip), vehicle: other) was 86 % of control and the T/C (dose: 125.0 mg/kg/injection, schedule: Q02DX006 (ip), vehicle: other) was 76 % of control.

In the case of `CNc1ncnc2c1cnn2C`, the T/C [5] is reported as 84 % of control, the T/C (dose: 5.0 mg/kg/injection, schedule: Q01DX011 (ip), vehicle: saline) is reported as 89 % of control and the T/C [1] is reported as 120 % of control. For the same molecule, the T/C [2] was 36 % of control.

`Nc1[nH]c(=O)nc2c1ncn2C1OC(CO)C(O)C1O` (stereo unspecified) was tested, and the T/C [2] was 100 % of control, the T/C (dose: 30.0 mg/kg/injection, schedule: Q01DX011 (ip), vehicle: saline) was 42 % of control and the T/C [7] was 58 % of control.

For `Cn1cnc([N+](=O)[O-])c1SCc1ccccc1`, the T/C [6] was 52 % of control, the T/C (dose: 100.0 mg/kg/injection, schedule: Q01DX011 (ip), vehicle: saline) was 49 % of control and the T/C (dose: 125.0 mg/kg/injection, schedule: Q01DX011 (ip), vehicle: saline) was 33 % of control. The T/C [3] was 54 % of control and the T/C (dose: 175.0 mg/kg/injection, schedule: Q01DX011 (ip), vehicle: saline) was 66 % of control.

With `Clc1nc(Cl)c2[nH]cnc2n1` the T/C [2] was 110 % of control and the T/C [7] was 82 % of control.

Source: PubChem BioAssay AID218 (DTP/NCI, 2004)
